Results: patent US20220267313A1, “DIHYDROPYRIMIDINE DERIVATIVES AND USES THEREOF IN THE TREATMENT OF HBV INFECTION OR OF HBV-INDUCED DISEASES” (Janssen Sciences Ireland Unlimited Company, priority 2019, published 2022)

Experiments:
[1] = Cytotoxicity determination by CCK-8 assay, HepG2.2.15 cells; assay type: cell-based; conditions: human, 6 days treatment
Method: (§1) HepG2.2.15 (the HepG2.2.15 cell line can be produced by transfection of the HepG2 cell line as described in Sells, Chen, and Acs 1987 (Proc. Natl. Acad. Sci. USA 84: 1005-1009), and the HepG2 cell line is available from ATCC® under number HB-8065™)
(§2) HepG2.2.15 cells were plated into 96-well plate in 2% FBS culture medium at the density of 40,000 cells/well and 5,000 cells/well for HBV inhibitory activity and cytotoxicity determination, respectively. After incubation at 37° C., 5% CO2 overnight, cells were treated with medium containing compounds for 6 days with medium and compounds refreshed after 3 days of treatment. Each compound was tested in a 1:3 serial dilutions at 8 different concentrations in triplicate. The highest concentration of the compounds was 10 uM or 1 uM for anti-HBV activity assay and 100 uM for cytotoxicity determination.
Cell viability was determined by CCK-8 assay. After 6 days of compounds treatment, 20 μl CCK-8 reagents were added to each well of cytotoxicity assay plates. Cell plates were incubated at 37° C., 5% CO2 for 2.5 h. The absorbance at 450 nm wavelength and the absorbance at 630 nm wavelength as reference was measured.
(§3) EC50 and CC50 values are calculated by the GRAPHPAD PRISM software.

HBV = assay: Anti-HBV activity: HBV DNA in culture medium by qPCR, HepG2.2.15 cells; assay type: cell-based; conditions: Hepatitis B virus, 144 h, 6 days treatment
Method: as §1, §2
The change of HBV DNA level induced by the compounds was assessed by quantitative real-time polymerase chain reaction (qPCR). Briefly, the HBV DNA in the culture medium was extracted using QIAamp 96 DNA Blood Kit according to the manual and then quantified by real-time PCR assay using the primers and probe in the table 1 below.
as §3

Structure (SMILES)	CC50 at 6 days [1]	EC50 (HBV)
CCOC(=O)C1=C(C23C4C5C2C2C3C4C52C(=O)O)NC(c2nccs2)=N[C@@H]1c1ccc(F)c(F)c1Br (stereo in doubt) [Ib-14, (2S,3S,5S,6S,7S,8S)-4-((S*)-6-(2-bromo-3,4-difluorophenyl)-5-(ethoxycarbonyl)-2-(thiazol-2-yl)-3,6-dihydropyrimidin-4-yl)cubane-1-carboxylic Acid]	7 nM	41000 nM
CCOC(=O)C1=C(C23C4C5C2C2C3C4C52CC(C)(C)C(=O)O)NC(c2nccs2)=N[C@@H]1c1ccc(F)c(F)c1Cl (single isomer, unassigned) [Ib-28, (S*)-3-(4-(6-(2-chloro-3,4-difluorophenyl)-5-(ethoxycarbonyl)-2-(thiazol-2-yl)-3,6-dihydropyrimidin-4-yl)cuban-1-yl)-2,2-dimethylpropanoic Acid]	26.5 nM	16000 nM
COC(=O)C1=C(C23C4C5C2C2C3C4C52C(=O)O)NC(c2nccs2)=N[C@@H]1c1ccc(F)cc1Cl (single isomer, unassigned) [Ib-3, (1R,2R,3R,8S)-4-((S*)-6-(2-chloro-4-fluorophenyl)-5-(methoxycarbonyl)-2-(thiazol-2-yl)-3,6-dihydropyrimidin-4-yl)cubane-1-carboxylic Acid]	84 nM	70000 nM
CCOC(=O)C1=C(C23C4C5C2C2C3C4C52C(=O)O)NC(c2nccs2)=N[C@H]1c1ccc(F)cc1 (stereo in doubt) [Ib-24, (2S,3S,5S,6S,7S,8S)-4-((S*)-5-(ethoxycarbonyl)-6-(4-fluorophenyl)-2-(thiazol-2-yl)-3,6-dihydropyrimidin-4-yl)cubane-1-carboxylic Acid]	223 nM	> 25000 nM
CCOC(=O)C1=C(C23C4C5C2C2C3C4C52C(=O)O)NC(c2nccs2)=N[C@H]1c1ccc(F)cc1Br (single isomer, unassigned) [Ia-6, (R*)-4-(6-(2-bromo-4-fluorophenyl)-5-(ethoxycarbonyl)-2-(thiazol-2-yl)-3,6-dihydropyrimidin-4-yl)cubane-1-carboxylic Acid]	11.5 nM	> 12500 nM
COC(=O)C1=C(C23C4C5C2C2C3C4C52C(=O)O)NC(c2nccs2)=N[C@@H]1c1ccc(F)c(F)c1F (stereo in doubt) [Ib-22, (S*)-4-((2,3,4-trifluorophenyl)-6-(methoxycarbonyl)-2-(thiazolel-4-yl))-1,4-dihydropyrimidin-4-yl)cubane-5-carboxylic Acid]	282 nM	> 25000 nM
CCOC(=O)C1=C(C23C4C5C2C2C3C4C52C(=O)O)NC(c2nccs2)=N[C@@H]1c1cccc(F)c1Cl (stereo in doubt) [Ib-15, (2S,3S,5S,6S,7S,8S)-4-((S*)-6-(2-chloro-3-fluorophenyl)-5-(ethoxycarbonyl)-2-(thiazol-2-yl)-3,6-dihydropyrimidin-4-yl)cubane-1-carboxylic Acid]	19 nM	> 50000 nM
COC(=O)C1=C(C23C4C5C2C2C3C4C52C(=O)O)NC(c2nccn2C)=NC1c1ccc(F)c(F)c1Cl (single isomer, unassigned) [Ia-2, (R*)-4-(6-(2-chloro-3,4-difluorophenyl)-5-(methoxycarbonyl)-2-(1-methyl-1H-imidazol-2-yl)-3,6-dihydropyrimidin-4-yl)cubane-1-carboxylic Acid]	295 nM	> 100000 nM
CCOC(=O)C1=C(C23C4C5C2C2C3C4C52C(=O)O)NC(c2nccs2)=NC1c1ccc(F)cc1C (single isomer, unassigned) [Ia-5, (R*)-4-(5-(ethoxycarbonyl)-6-(4-fluoro-2-methylphenyl)-2-(thiazol-2-yl)-3,6-dihydropyrimidin-4-yl)cubane-1-carboxylic Acid]	43 nM	> 50000 nM
